SMILES strings stand for the structures.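 All cell lines were grown in 96-well plates and treated with compound for 48 hours. GI50 marks 50% less growth.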 Active and inactive are the calls of the source. Cut-off read from the data, not from the text of the source: active = GI50 up to about 1.1 µM and inactive = higher.

Consider 13 compounds from ChEMBL document CHEMBL1201862, “PubChem BioAssay data set” (2004).

Some test systems named below: SK-MEL-5; COLO 205; DMS-114; OVCAR-5; SW-620; 786-0; K562; HCT-15; RXF 393; UACC-257; OVCAR-4; UACC-62; M14; NCI-H226; TK-10; DLD-1; SR.
Holding throughout (assay): NCI-60 cell line screen, 48 h

Turning to `COc1cccc2cc(C)c(C(=O)c3ccccc3)nc12`, the GI50 with SK-MEL-5, in the assay on COLO 205, in the assay on DMS-114, in the assay on OVCAR-5, with SW-620 and in the assay with 786-0 was > 100 µM (inactive) throughout. The GI50 in the assay on K562 was > 100 µM (inactive); with HCT-15, greater than 100 µM; in the assay on RXF 393, > 100 µM (inactive); in the assay on UACC-257 it was 82.2 µM (inactive); in the assay on OVCAR-4 it was > 100 µM (inactive); in the assay on UACC-62 it was > 100 µM (inactive). Further, the GI50 with M14, with NCI-H226, in the assay with TK-10 and with DLD-1 was > 100 µM (inactive) in each case.
In the case of `NC(CSSCC(N)Cc1ccccc1)Cc1ccccc1` (stereo not drawn), the GI50 in the assay with SK-MEL-5 was 24 µM (inactive); in the assay on COLO 205, 32.7 µM (inactive); with DMS-114, 39.2 µM (inactive); in the assay on OVCAR-5, 44.3 µM (inactive); with SW-620 it was 31.6 µM (inactive); in the assay with 786-0, 32.9 µM (inactive). In addition, the GI50 in the assay on K562 was 33.4 µM (inactive); with HCT-15 it was 66.7 µM; with UACC-257, 47.8 µM (inactive); in the assay on OVCAR-4, 70.8 µM (inactive); with UACC-62, 23.1 µM (inactive); in the assay on M14, 26.4 µM (inactive). For the same compound, the GI50 with TK-10 was > 100 µM (inactive); with SR it was 31 µM (inactive); with DLD-1 it was 49.5 µM (inactive).
For the compound `N/N=c1/nc2n(c3ncccc13)C=CNN2`, the GI50 with SK-MEL-5, with COLO 205, in the assay on DMS-114, in the assay on OVCAR-5, with SW-620 and with 786-0 was > 100 µM (inactive) each time. Moreover, the GI50 was > 100 µM (inactive) with K562; greater than 100 µM with HCT-15; > 100 µM (inactive) in the assay with RXF 393; > 100 µM (inactive) in the assay on UACC-257; > 100 µM (inactive) in the assay on UACC-62; > 100 µM (inactive) in the assay with NCI-H226. Moreover, the GI50 in the assay on TK-10, with SR and with DLD-1 was > 100 µM (inactive) in each case.
`CCCCCCC(=O)OC[n+]1ccc2c(C)c3[nH]c4ccccc4c3c(C)c2c1`: the GI50 is 1.56 µM (inactive) with SK-MEL-5; 1.08 µM (active) in the assay on DMS-114; 1.71 µM (inactive) in the assay on OVCAR-5; 0.31 µM (active) in the assay with SW-620; 0.418 µM (active) with 786-0; 0.348 µM in the assay with HCT-15. The GI50 is 1 µM (active) in the assay with RXF 393; 1.79 µM (inactive) in the assay with UACC-257; 1.06 µM (active) in the assay with OVCAR-4; 2.72 µM (inactive) with UACC-62; 1.29 µM (inactive) in the assay on M14; 1.46 µM (inactive) in the assay on NCI-H226. Besides, the results for the GI50 in the assay with TK-10, in the assay on SR and in the assay on DLD-1 were 3.13 µM (inactive), 0.101 µM (active) and 0.4 µM (active), respectively.
Consider `CCSc1nnc(CSc2nc(-c3ccccc3)c(-c3ccccc3)[nH]2)n1-c1ccccc1`, for which the GI50 was 17.1 µM (inactive) with SK-MEL-5; 16.1 µM (inactive) with COLO 205; 19 µM (inactive) in the assay on DMS-114; 14.5 µM (inactive) in the assay on OVCAR-5; 16.6 µM (inactive) in the assay with SW-620; 19.8 µM (inactive) in the assay with 786-0. The GI50 was 25.3 µM (inactive) in the assay on K562; 18.5 µM in the assay on HCT-15; 25.8 µM (inactive) in the assay with RXF 393; 18.6 µM (inactive) in the assay on UACC-257; 15.3 µM (inactive) in the assay on UACC-62; 19 µM (inactive) with M14. Moreover, the GI50 is 14.1 µM (inactive) with NCI-H226, 22.6 µM (inactive) in the assay with TK-10, 24.3 µM (inactive) in the assay on SR and 20.2 µM (inactive) in the assay on DLD-1.
Turning to `O=C(/C(=C\c1ccc(Cl)cc1)c1ccccc1)c1ccccc1`, the GI50 in the assay with COLO 205 was > 100 µM (inactive); in the assay with DMS-114, 21.4 µM (inactive); in the assay on OVCAR-5, 22.7 µM (inactive); in the assay on SW-620, 57.8 µM (inactive); in the assay on 786-0 it was 79.8 µM (inactive); in the assay with K562 it was 54.1 µM (inactive). For the same compound, the GI50 in the assay on HCT-15 is 90.4 µM; in the assay with UACC-257, 42.5 µM (inactive); in the assay on OVCAR-4 it was 26.3 µM (inactive); with UACC-62, > 100 µM (inactive); with M14, 73.5 µM (inactive); in the assay with NCI-H226 it was 39.6 µM (inactive). For the same compound, the results for the GI50 in the assay on TK-10, with SR and in the assay with DLD-1 were > 100 µM (inactive), 40.8 µM (inactive) and 93.5 µM (inactive), respectively.
For the compound `COc1c(C)cc2c(c1O)C1C3[C@H]4SC[C@@]5(NCCC6=C5NC5C=CC=CC65)C(=O)OCC(c5c6c(c(C)c(OC(C)=O)c54)OCO6)N3[C@@H](O)C(C2)N1C` (stereo partly drawn), the GI50 in the assay with SK-MEL-5, with COLO 205, in the assay with DMS-114, in the assay on SW-620, in the assay on 786-0 and in the assay with K562 was < 0.01 µM (active) throughout. For the same compound, the GI50 in the assay with HCT-15 was less than 0.01 µM; in the assay on RXF 393, < 0.01 µM (active); with UACC-257, < 0.01 µM (active); in the assay on UACC-62 it was < 0.01 µM (active); in the assay with M14 it was < 0.01 µM (active); in the assay on NCI-H226, 0.0112 µM (active). In addition, the GI50 with TK-10, with SR and in the assay with DLD-1 was < 0.01 µM (active) throughout.
Consider `NC1=NS(=O)(=O)Nc2nc(-c3ccc([N+](=O)[O-])cc3)[nH]c21`, for which the GI50 with SK-MEL-5, in the assay with COLO 205, in the assay with DMS-114, with OVCAR-5, with SW-620 and with 786-0 was > 100 µM (inactive) throughout. Besides, the GI50 in the assay on K562 was > 100 µM (inactive); with HCT-15, greater than 100 µM; with RXF 393, > 100 µM (inactive); with OVCAR-4, > 100 µM (inactive); in the assay with UACC-62, > 100 µM (inactive); in the assay on M14 it was > 100 µM (inactive). In addition, the GI50 in the assay on TK-10, with SR and with DLD-1 was > 100 µM (inactive) each time.
Consider `COCC1C(=O)c2cc3c(cc2C12C=CC1(C=C2)OCCO1)OCO3` (stereo not drawn), for which the GI50 in the assay on SK-MEL-5 is > 10 µM (inactive); in the assay with COLO 205 it was 10.3 µM (inactive); with DMS-114 it was 2.99 µM (inactive); in the assay with SW-620 it was 2.48 µM (inactive); with 786-0, 2.13 µM (inactive); with K562 it was 2 µM (inactive). Moreover, the GI50 is 1.6 µM in the assay with HCT-15; 8.85 µM (inactive) with RXF 393; 17.9 µM (inactive) in the assay on UACC-257; 14.2 µM (inactive) in the assay on OVCAR-4; 12.2 µM (inactive) with UACC-62; 3.38 µM (inactive) in the assay on M14. For the same compound, the GI50 was 10.9 µM (inactive) in the assay on NCI-H226, 20.6 µM (inactive) in the assay with TK-10, 1.82 µM (inactive) with SR and 2.22 µM (inactive) in the assay with DLD-1.
For the compound `COc1ccc(NC(=O)CC/C(CC(=O)c2ccco2)=N/NC(=O)C(N)=O)cc1`, the GI50 in the assay on SK-MEL-5 was 27.4 µM (inactive); with COLO 205, > 100 µM (inactive); in the assay with DMS-114, 35.2 µM (inactive); in the assay on OVCAR-5 it was > 100 µM (inactive); in the assay on SW-620 it was > 100 µM (inactive); with 786-0, > 100 µM (inactive). Also, the GI50 with K562 is 28.1 µM (inactive); in the assay with HCT-15, greater than 100 µM; with RXF 393, 61.9 µM (inactive); in the assay with UACC-257, 54.5 µM (inactive); in the assay with OVCAR-4 it was > 100 µM (inactive); with UACC-62 it was > 100 µM (inactive). For the same compound, the GI50 in the assay on M14, in the assay with NCI-H226, in the assay with TK-10 and with DLD-1 was > 100 µM (inactive) in each case.
`Cc1cc(Br)cc(C)c1NC(=O)C(=O)C(C(=O)c1ccncc1)C1OC(=O)c2ccccc21` (stereo not drawn): the GI50 in the assay with COLO 205, with DMS-114, in the assay on OVCAR-5, in the assay with SW-620, in the assay on 786-0 and in the assay on K562 was > 100 µM (inactive) throughout. Further, the GI50 with HCT-15 was greater than 100 µM; with RXF 393, > 100 µM (inactive); in the assay with UACC-257, > 100 µM (inactive); in the assay with OVCAR-4 it was > 100 µM (inactive); with UACC-62, > 100 µM (inactive); in the assay on M14 it was > 100 µM (inactive). Moreover, the GI50 with NCI-H226, in the assay on TK-10, in the assay with SR and in the assay on DLD-1 was > 100 µM (inactive) each time.
On to `CCOC(=O)CC1=Nc2ccccc2SC1`, for which the GI50 in the assay with SK-MEL-5, with COLO 205, in the assay with DMS-114, in the assay on OVCAR-5, in the assay on SW-620 and in the assay with 786-0 was > 100 µM (inactive) throughout. Moreover, the GI50 with HCT-15 was greater than 100 µM; in the assay on RXF 393, > 100 µM (inactive); with UACC-257 it was > 100 µM (inactive); with OVCAR-4, > 100 µM (inactive); in the assay with UACC-62, > 100 µM (inactive); with M14 it was > 100 µM (inactive). Further, the GI50 in the assay with NCI-H226, in the assay on TK-10 and with DLD-1 was > 100 µM (inactive) throughout.
For `CC(=O)Oc1ccc(O)c(O)c1C/C=C(\C)CC/C=C(\C)CC/C=C(\C)CCC=C(C)C` [TETRAPRENYLPHENOLSUILLIN], the GI50 in the assay on COLO 205 was 0.157 µM (active); with DMS-114, 0.35 µM (active); with OVCAR-5, 0.596 µM (active); with SW-620, 0.3 µM (active); with 786-0, 1.1 µM (active); in the assay with RXF 393, 1.2 µM (inactive). Further, the GI50 is 0.65 µM (active) with UACC-257; 0.426 µM (active) in the assay on OVCAR-4; 1.51 µM (inactive) with M14; 0.692 µM (active) in the assay on NCI-H226; 1.32 µM (inactive) in the assay with TK-10; 0.0564 µM (active) in the assay on SR. The GI50 in the assay with DLD-1 is 0.34 µM (active).
